Where a name gives a salt, the structure may show the parent alone.

This experiment relates to histamine release from rat mast cell. Description: Inhibitory activity against histamine release from rat mast cell. To be noted: 10 μg/ml, read-out: Inhibitory rate against histamine release. Format: cell-based. As to the method: An anti-dinitrophenylated-ovalbumin (anti DNP-OVA) rat antiserum having 800 of PCA titer in homologous passive cutaneous anaphylaxis reaction in rats for 48 hours was diluted double with physiological saline, and 1 ml of diluted antiserum was injected intraperitoneally into rats to be passively sensitized. On the next day, peritoneal exudation cell (hereinafter referred to as "PEC") was collected. The collected PEC was washed with a medium containing 0.1% BSA, and 1.5×10^5 of the PEC were added to each test tube. AFter incubation at 37° C. for 10 minutes, 50 μl of test compound solution in a same medium was added thereto. After 30 seconds, 50 μl of antigen solution (DVA-OVA 100 μg/ml) was further added thereto to give the total amount of 500 μl of the reaction mixture, and histamine release reaction was induced. After 10 minutes, 1 ml of physiological saline with cooled Tris buffered solution containing 1 mM EDTA were added thereto to stop the reaction. After centrifugation, the amount of histamine in supernatant was determined by fluorescence method according to the method of Shore et al [cf. J. Pharmacol. Exp. Ther., 127, 182 (1959)]. Inhibition rate against histamine release was calculated according to the following equation.
Inhibition rate against histamine release [formula] M: Amount of histamine in supernatant under addition of antigen and non-addition of test compound
S: Amount of histamine in supernatant under addition of antigen and test compound
B: Amount of histamine in supernatant under non-addition of antigen and test compound.
The test compound was used in a concentration of 10 μg/ml.
As to `O=c1c(-c2nnn[nH]2)c2cccccc-2n1Cc1ccc(F)cc1` [Example 8, 1-(4-Fluorobenzyl)-3-(5-tetrazolyl)-1-azaazulane-2-one], the inhibition at 10 µg/mL is 89.6%.

Consider `O=c1c(-c2nnn[nH]2)c2cccccc-2n1Cc1ccc(Cl)cc1` [Example 11, 1-(4-Chlorobenzyl)-3-(5-tetrazolyl)-1-azaazulane-2-one], for which the inhibition at 10 µg/mL came to 85.8%.

`CC(C)c1cccc2n(CCc3ccc(O)c(O)c3)c(=O)c(-c3nnn[nH]3)c-2c1` [Example 12, 1-(3,4-Dihydroxyphenylethyl)-5-iso-propyl-3-(5-tetrazolyl)-1-azaazulane-2-one]: the inhibition at 10 µg/mL stood at 60%.

On to `O=c1[nH]c2cccccc-2c1-c1nnn[nH]1` [Example 14], for which the inhibition at 10 µg/mL is 89.6%.

Take `Cn1c2cccccc-2c(-c2nnn[nH]2)c1=O` [Example 15]: the inhibition at 10 µg/mL was found to be 96.1%.

`CCCCCCn1c2cccccc-2c(-c2nnn[nH]2)c1=O` [Example 20]: the inhibition at 10 µg/mL turned out to be 91.1%.

As for `CCCCCCCCCCCCCCCCCCn1c2cccccc-2c(-c2nnn[nH]2)c1=O` [Example 21], the inhibition at 10 µg/mL was determined as 10.1%.

On to `C=CCn1c2cccccc-2c(-c2nnn[nH]2)c1=O` [Example 22], for which the inhibition at 10 µg/mL is 84.2%.

As to `CCOCCn1c2cccccc-2c(-c2nnn[nH]2)c1=O` [Example 23], the inhibition at 10 µg/mL was 87.2%.

Consider `N#CCCCn1c2cccccc-2c(-c2nnn[nH]2)c1=O` [Example 24], for which the inhibition at 10 µg/mL worked out at 86.3%.

As to `O=c1c(-c2nnn[nH]2)c2cccccc-2n1CCC(c1ccccc1)c1ccccc1` [Example 25], the inhibition at 10 µg/mL is 4.6%.

For the compound `O=c1c(-c2nn[nH]n2)c2cccccc-2n1CCc1ccccc1` [Example 26], the inhibition at 10 µg/mL was 94.1%.

As for `CC(C)c1cccc2c(-c3nn[nH]n3)c(=O)n(CCc3ccccc3)c-2c1` [Example 27], the inhibition at 10 µg/mL came to 89.6%.

As to `O=c1c(-c2nn[nH]n2)c2cccccc-2n1CCCc1ccccc1` [Example 28], the inhibition at 10 µg/mL was found to be 92.6%.

Consider `O=c1c(-c2nn[nH]n2)c2cccccc-2n1CCCCc1ccccc1` [Example 31], for which the inhibition at 10 µg/mL is 70%.

Consider `O=c1c(-c2nn[nH]n2)c2cccccc-2n1CCCCCc1ccccc1` [Example 32], for which the inhibition at 10 µg/mL came out at 1.5%.

For `O=c1c(-c2nn[nH]n2)c2cccccc-2n1Cc1cccc(F)c1` [Example 33], the inhibition at 10 µg/mL was determined as 67.2%.

Regarding `O=c1c(-c2nn[nH]n2)c2cccccc-2n1Cc1ccccc1F` [Example 34], the inhibition at 10 µg/mL came to 87.3%.

Regarding `N#Cc1ccc(Cn2c3cccccc-3c(-c3nn[nH]n3)c2=O)cc1` [Example 36], the inhibition at 10 µg/mL was determined as 43.2%.

As to `CCOC(=O)c1ccc(Cn2c3cccccc-3c(-c3nn[nH]n3)c2=O)cc1` [Example 37], the inhibition at 10 µg/mL was 64.8%.

For `COc1ccc(Cn2c3cccccc-3c(-c3nn[nH]n3)c2=O)cc1` [Example 39], the inhibition at 10 µg/mL was found to be 93%.

Turning to `O=c1c(-c2nn[nH]n2)c2cccccc-2n1Cc1ccc(O)cc1` [Example 40], the inhibition at 10 µg/mL was 93.5%.

On to `O=C(Cn1c2cccccc-2c(-c2nn[nH]n2)c1=O)c1ccc(Cl)cc1` [Example 41], for which the inhibition at 10 µg/mL stood at 32.3%.

On to `O=c1c(-c2nn[nH]n2)c2cccccc-2n1CC=Cc1ccccc1` [Example 42], for which the inhibition at 10 µg/mL amounted to 78.2%.

`O=c1c(-c2nn[nH]n2)c2cccccc-2n1Cc1ccc(Cl)cc1Cl` [Example 45]: the inhibition at 10 µg/mL stood at 19.3%.

Regarding `Cc1cc(C)c(Cn2c3cccccc-3c(-c3nn[nH]n3)c2=O)c(C)c1` [Example 47], the inhibition at 10 µg/mL turned out to be 12.6%.

Consider `CCCc1c(OCCCn2c3cccc(C(C)C)cc-3c(-c3nn[nH]n3)c2=O)ccc(C(C)=O)c1O` [Example 50], for which the inhibition at 10 µg/mL came to 59.8%.

Regarding `CC(C)n1c2cccccc-2c(-c2nn[nH]n2)c1=O` [Example 52], the inhibition at 10 µg/mL came out at 81.2%.

`CC(C)c1cccc2n(Cc3ccc4ccccc4n3)c(=O)c(-c3nn[nH]n3)c-2c1` [Example 53]: the inhibition at 10 µg/mL was 56.3%.

Turning to `O=c1c(-c2nn[nH]n2)c2cccccc-2n1CCCCl` [Example 54], the inhibition at 10 µg/mL turned out to be 55.5%.

With `CC(C)c1cccc2n(Cc3cccs3)c(=O)c(-c3nn[nH]n3)c-2c1` [Example 55], the inhibition at 10 µg/mL stood at 65.8%.

Turning to `CC(C)c1cccc2n(Cc3ccc(Cl)cc3)c(=O)c(-c3nn[nH]n3)c-2c1` [Example 56], the inhibition at 10 µg/mL amounted to 88%.

As for `CC(C)c1cccc2c(-c3nn[nH]n3)c(=O)n(Cc3ccc(Cl)cc3)c-2c1` [Example 57], the inhibition at 10 µg/mL worked out at 89%.

On to `N#Cc1c2cccccc-2nc1NCC(c1ccccc1)c1ccccc1` [Example 58, 3-Cyano-2-(2,2-diphenylethylamino)-1-azaazulene], for which the inhibition at 10 µg/mL turned out to be 16.1%.

As to `N#Cc1c2cccccc-2nc1NCCC(c1ccccc1)c1ccccc1` [Example 59, 3-Cyano-2-(3,3-diphenylpropylamino)-1-azaazulene], the inhibition at 10 µg/mL was 14%.

With `CC(C)c1cccc2c(C#N)c(N=[N+]=[N-])nc-2c1` [Example 61, 2-Azido-3-cyano-7-isopropyl-1-azaazulene], the inhibition at 10 µg/mL came out at 3.8%.

`CC(C)c1cccc2nc(NCC(=O)O)c(C#N)c-2c1` [Example 63, Sodium salt of 2-carboxymethylamino-3-cyano-5-isopropyl-1-azaazulene]: the inhibition at 10 µg/mL was 85.3%.

As to `COc1ccccc1N1CCN(c2nc3cccccc-3c2C#N)CC1` [Example 64, 3-Cyano-2-(4-(2-methoxyphenyl)piperazinyl)-1-azaazulene], the inhibition at 10 µg/mL was -12.2%.

On to `N#Cc1c2cccccc-2nc1NC(c1ccccc1)c1ccccc1` [Example 65], for which the inhibition at 10 µg/mL is 17.5%.

With `CCOC(=O)c1ccc(Nc2nc3cccccc-3c2C#N)cc1` [Example 66], the inhibition at 10 µg/mL was determined as 20.5%.

Regarding `N#Cc1c2cccccc-2nc1Nc1ccc(C(=O)O)cc1` [Example 67], the inhibition at 10 µg/mL amounted to 57%.

For the compound `COC(=O)c1ccccc1Nc1nc2cccccc-2c1C#N` [Example 68], the inhibition at 10 µg/mL was 8.9%.

In the case of `N#Cc1c2cccccc-2nc1N1CCN(C(c2ccccc2)c2ccccc2)CC1` [Example 69], the inhibition at 10 µg/mL was 33.2%.

On to `CCOC(=O)C(Cc1ccccc1)Nc1nc2cccccc-2c1C#N` (centres unmarked) [Example 70], for which the inhibition at 10 µg/mL worked out at 4.2%.

As for `N#Cc1c2cccccc-2nc1NC(Cc1ccccc1)C(=O)O` (centres unmarked) [Example 71], the inhibition at 10 µg/mL came out at 8.1%.

As to `N#Cc1c2cccccc-2nc1NC(CO)C(=O)O` (centres unmarked) [Example 72], the inhibition at 10 µg/mL is 22.5%.

For `CC(Nc1nc2cccccc-2c1C#N)C(=O)O` (centres unmarked) [Example 73], the inhibition at 10 µg/mL turned out to be 60.8%.

Turning to `N#Cc1c2cccccc-2nc1N` [Example 74], the inhibition at 10 µg/mL amounted to 64.8%.

Take `N#Cc1c2cccccc-2nc1NCCN1CCCC1` [Example 75]: the inhibition at 10 µg/mL was -9.6%.

As to `CC(C)c1cccc2nc(N=[N+]=[N-])c(C#N)c-2c1` [Example 76], the inhibition at 10 µg/mL stood at 70.5%.

As for `COC(=O)C1CCCN1c1nc2cccccc-2c1C#N` (centres unmarked) [Example 77], the inhibition at 10 µg/mL was 35.7%.

With `N#Cc1c2cccccc-2nc1N1CCCC1C(=O)O` (centres unmarked) [Example 78], the inhibition at 10 µg/mL was 50.5%.

Turning to `CC(C)c1cccc2c(C#N)c(NCC(=O)O)nc-2c1` [Example 79], the inhibition at 10 µg/mL stood at 85.8%.

The values above are taken from patent USRE34918E, “Azaazulene compounds which are useful as antiallergic and antiinflammatory agents” (Kaken Pharmaceutical Co., Ltd., priority 1988, dated 1995).
